Consider 20 compounds from ChEMBL document CHEMBL1136262, “4-Alkoxy-2,6-diaminopyrimidine derivatives: inhibitors of cyclin dependent kinases 1 and 2” (Bioorg Med Chem Lett, 2003).

In experiment [1] the target is T1, Cyclin-dependent kinase 2/cyclin A (Homo sapiens) (UniProt P24941+P20248+P78396). Briefly: Inhibition of human Cyclin-dependent kinase 2 cyclin A3 at 100 uM. It counts as protein-complex assay.
Experiment [2] concerns the target T2, Cyclin-dependent kinase 1/cyclin B1 (Homo sapiens, UniProt P06493+P14635). As to the kind of experiment: Inhibition of Cyclin dependent kinase 1-cyclin B1 from starfish oocytes at 100 uM. Conditions: Asteroidea, Oocyte.
The target of experiment [3] is Cyclin-dependent kinase 2/cyclin A (Homo sapiens, UniProt P24941). Briefly: Inhibition of human Cyclin-dependent kinase 2 cyclin A3 at 12.5 uM ATP. It counts as protein-complex assay.
Experiment [4] addresses T2, Cyclin-dependent kinase 1/cyclin B1. Briefly: Inhibition of Cyclin dependent kinase 1-cyclin B1 from starfish oocytes at 10 uM. As to conditions: Asteroidea, Oocyte.
The target in experiment [5] is T1, Cyclin-dependent kinase 2/cyclin A (Homo sapiens). As to the kind of experiment: Inhibition of human Cyclin-dependent kinase 2 cyclin A3 at 10 uM. The class given is protein-complex assay.

T2 sequence (P06493 whole entry, looked up): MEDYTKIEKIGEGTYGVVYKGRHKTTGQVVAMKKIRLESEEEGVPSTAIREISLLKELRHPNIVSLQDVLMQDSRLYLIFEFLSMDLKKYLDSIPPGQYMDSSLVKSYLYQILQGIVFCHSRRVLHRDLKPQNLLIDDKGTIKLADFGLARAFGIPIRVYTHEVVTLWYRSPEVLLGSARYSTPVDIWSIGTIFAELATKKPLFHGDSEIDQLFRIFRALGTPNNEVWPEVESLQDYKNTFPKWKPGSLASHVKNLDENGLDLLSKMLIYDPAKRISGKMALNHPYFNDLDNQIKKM
T2 sequence (P14635 whole entry, looked up): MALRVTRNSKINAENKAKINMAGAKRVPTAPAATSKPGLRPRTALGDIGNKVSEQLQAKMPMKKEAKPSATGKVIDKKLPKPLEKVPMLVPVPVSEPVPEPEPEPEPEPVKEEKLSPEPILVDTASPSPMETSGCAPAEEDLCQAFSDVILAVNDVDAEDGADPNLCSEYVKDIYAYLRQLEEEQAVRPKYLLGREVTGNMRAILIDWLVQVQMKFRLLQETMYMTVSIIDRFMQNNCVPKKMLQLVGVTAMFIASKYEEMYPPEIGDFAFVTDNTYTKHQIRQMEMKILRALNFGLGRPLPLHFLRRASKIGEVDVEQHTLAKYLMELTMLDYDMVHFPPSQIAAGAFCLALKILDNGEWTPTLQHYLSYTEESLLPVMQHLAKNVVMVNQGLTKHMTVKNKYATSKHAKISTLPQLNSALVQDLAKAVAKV

As for `Nc1nc(N)c(N)c(OCC2CCCCC2)n1`, the inhibition was found to be 52% in experiment [1] and 40% in experiment [2].
On to `CC(=O)Nc1nc(N)nc(OCC2CCCCC2)c1N=O`, for which the inhibition came to 28% in experiment [1] and 36% in experiment [2].
As to `Nc1nc(N)c(N=O)c(OC[C@@H]2NCCC2=O)n1`, in experiment [3], half-maximal inhibition (IC50) was put at 65 µM.
Regarding `CCCCCCCOc1nc(N)nc(N)c1N=O`, the inhibition in experiment [4] amounted to 17%; in experiment [5], 22%.
For the compound `Nc1nc(N)c(N=O)c(OCc2ccccc2)n1`, in experiment [3], the IC50 amounted to 27 µM. This lies in the double-digit micromolar range.
As to `COc1ccc(Nc2nc(N)nc(OCC3CCCCC3)c2N=O)cc1`, the inhibition amounted to 8% in experiment [1] and 7% in experiment [2].
In the case of `Nc1nc(Nc2ccccc2)c(N=O)c(OCC2CCCCC2)n1`, the inhibition is 47% in experiment [1] and 23% in experiment [2].
`Nc1nc(N)c(/C=N/O)c(OCC2CCCCC2)n1`: the inhibition came to 37% in experiment [1] and 25% in experiment [2].
Regarding `CO/N=C/c1c(N)nc(N)nc1OCC1CCCCC1`, the inhibition in experiment [4] and in experiment [5] was 13% throughout.
In experiment [3], `Nc1nc(N)c(N=O)c(OCC2CC=CCC2)n1` (configuration not stated) displayed an IC50 of 5 µM.
For `Nc1nc(N)c(C=O)c(OCC2CCCCC2)n1`, the inhibition in experiment [4] was found to be 35%; in experiment [5] it was 43%.
As to `Nc1nc(N)c(C(=O)c2ccccc2)c(OCC2CCCCC2)n1`, the inhibition in experiment [4] is 21%; in experiment [5], 6%.
Regarding `Nc1nc(N)c(C(O)c2ccccc2)c(OCC2CCCCC2)n1` (configuration not stated), the figures for the inhibition in experiment [1] and in experiment [2] were 12% and 4%, respectively.
Consider `Nc1nc(NC(=O)OCc2ccccc2)c(N=O)c(OCC2CCCCC2)n1`, for which the inhibition in experiment [4] worked out at 14%; in experiment [5], 11%.
For `COC(=O)Nc1nc(N)nc(OCC2CCCCC2)c1N=O`, the inhibition in experiment [1] amounted to 6%; in experiment [2] it was 8%.
For `NC(=O)N/N=C/c1c(N)nc(N)nc1OCC1CCCCC1`, in that order: 44% and 61%.
Turning to `Nc1nc(N)c(/C=N/OCc2ccccc2)c(OCC2CCCCC2)n1`, the inhibition in experiment [4] worked out at 5%; in experiment [5] it was 3%.
As to `Nc1cc(OCC2CCCCC2)nc(N)n1`, the results for the inhibition in experiment [4] and in experiment [5] were 4% and 7%, respectively.
For `Nc1cc(OCC2CC=CCC2)nc(N)n1` (configuration not stated), in that order: 16% and 8%.
Consider `CCCCCOc1nc(N)nc(N)c1N=O`, for which the inhibition amounted to 35% in experiment [4] and 36% in experiment [5].
